The record followed here is US5336483A (priority 1993, dated 1994).

One data set addresses κ2 receptor. Put plainly: Displacement of [^3 H]BRM (bremazocine), κ2 receptor binding, guinea pig brain membranes depleted of μ and δ sites. The note with it: for less potent (fold) than ioxy: [^3 H]BRM displacement.
The target in another data set is μ and κ2 receptor. Put plainly: Displacement of [^3 H]CycloFOXY, μ and κ2 receptor binding, rat brain lysed-P2 membranes.
For the next data set, the target named is T1, μ receptor (Rattus norvegicus, UniProt P33535).
T1 construct: and rat lysed-P2 membranes as previously described; from tissue; host or cells: rat brain, lysed-P2 membranes
T1 sequence (P33535 whole entry): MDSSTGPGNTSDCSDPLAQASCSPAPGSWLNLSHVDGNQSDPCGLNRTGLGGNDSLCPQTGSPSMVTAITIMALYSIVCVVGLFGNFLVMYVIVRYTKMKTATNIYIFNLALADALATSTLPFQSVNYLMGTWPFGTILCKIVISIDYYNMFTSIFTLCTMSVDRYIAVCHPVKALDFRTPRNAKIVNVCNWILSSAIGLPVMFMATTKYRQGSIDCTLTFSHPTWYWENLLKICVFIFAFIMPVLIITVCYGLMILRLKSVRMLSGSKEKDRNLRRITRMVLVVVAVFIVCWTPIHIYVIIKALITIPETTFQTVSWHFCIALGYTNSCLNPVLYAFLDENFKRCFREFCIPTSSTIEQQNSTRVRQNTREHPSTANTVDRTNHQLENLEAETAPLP
In words: Displacement of [^3 H]DAGO, μ receptor binding, rat lysed-P2 membranes.

The target of data set [1] is T2, High Affinity δ Receptors (Rattus norvegicus, UniProt P33533).
T2 construct: and rat lysed-P2 membranes as previously described; from tissue; host or cells: rat lysed-P2 membranes (brain)
T2 sequence (P33533 whole entry): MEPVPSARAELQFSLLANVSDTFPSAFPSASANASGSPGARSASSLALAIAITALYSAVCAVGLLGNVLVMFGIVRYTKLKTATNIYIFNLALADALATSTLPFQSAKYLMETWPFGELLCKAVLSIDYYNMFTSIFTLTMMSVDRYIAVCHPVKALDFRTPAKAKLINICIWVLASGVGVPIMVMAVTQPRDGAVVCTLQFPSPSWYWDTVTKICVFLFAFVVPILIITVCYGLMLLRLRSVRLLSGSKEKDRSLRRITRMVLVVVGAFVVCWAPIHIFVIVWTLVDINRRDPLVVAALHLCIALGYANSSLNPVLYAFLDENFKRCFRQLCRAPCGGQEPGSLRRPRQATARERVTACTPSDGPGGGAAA
In words: Displacement of [^3 H]DADLE, high affinity δ receptors, rat lysed-P2 membranes. It counts as binding.

The next data set has as its target T3, κ1 receptor (Cavia porcellus, UniProt P41144).
T3 construct: from tissue; host or cells: guinea pig brain membranes, pretreated with BIT and FIT
Put plainly: biochemical. It counts as binding, guinea pig.

The target in a further data set is Low Affinity δ Receptors. In words: Displacement of [^3 H]DADLE, low affinity δ receptors, rat lysed-P2 membranes. It counts as binding.
Data set [2] concerns morphine-induced analgesia. Put plainly: In vivo antagonist activity: reversal of morphine-induced analgesia, rat paw withdrawal latency test. The settings on record: for paw withdrawal latency after i.v. injection / reversal of behavioral arrest and other opioid effects / duration of reversal: 5 mg/kg i.v.; for paw withdrawal latency after i.v. injection: tested within 5-10 min; for paw withdrawal latency after i.v. injection / duration of reversal: morphine-treated rats; for reversal of behavioral arrest and other opioid effects: morphine sulphate 10 mg/kg s.c.; for blood brain barrier penetration: i.v., inferred from reversal of morphine effects in rats; for reversal of the effects of morphine: rat paw withdrawal latency test; for antagonist potency in vivo (comparison in words): morphine induced paw withdrawal latency. The method, then:
Assessment of the ability of compounds 1, 2 and 10, 12 to cross the blood brain barrier was tested in male Sprague-Dawley rats (300 g) acutely treated with morphine. […] A baseline paw withdrawal to a radiant thermal stimulus was obtained in unrestrained animals as described in Iadarola et al., Brain Res. 1988, 455, 205-212 and Hargreaves, Pain 1988, 32, 77-78. The stimulus was set to give a baseline withdrawal latency of approximately 10 sec. and the cutoff was at 18 sec. After baseline testing, morphine sulphate, 10 mg/kg, was injected subcutaneously in a volume of 0.1 ml of saline/100 g of body weight.
Ioxy (1) and epiloxy (2) were evaluated in rat and guinea pig brain membranes for their opiate receptor selectivity and potency. […] This comparison was not made during development of the ^18 F cyclofoxy compounds.

The subject of data set [3] is opiate rich areas of rat brain. Put plainly: In vivo labelling of rat brain determined by autoradiography. The settings on record: i.v. in rats, preliminary. The method, then:
The radiolabelled products were stored at -20° C. and used within 1 week of purification. The material was dried down under a gentle stream of nitrogen and redissolved in normal saline prior to intravenous (IV) injection into rats (300 g, male Sprague-Dawley) in a volume of 100 μl/100 g body weight.
Cleavage of the 3-O-acetyl group of [^125 I]3-O-Acetylioxy ([^125 I]10) was performed starting with 315 μCi of [^125 I]3-O-Acetylioxydissolved in 50 μl of acetonitrile. To this solution at 25° C. was added 50 μl of concentrated aqueous ammonia solution and the reaction mixture was allowed to stand at 25° C. for 20 min. The reaction solvent was removed by careful evaporation under a stream of nitrogen. The residue was dissolved in 50 μl of 0.1% aqueous TFA/acetonitrile and purified by HPLC as described above for [^125 I]3-O-Acetylioxy to give [^125 I]1 (279 μCi, 88.5% yield). […] The [^125 I]ioxy eluted with the exact elution profile of unlabelled ioxy(1). The product was stored at -20° C. and used within 1 week of purification. The material was dried down under a gentle stream of nitrogen and redissolved in normal saline prior to intravenous (IV) injection into rats (300 g, male Sprague-Dawley) in a volume of 100 μl/100 g body weight.

SMILES strings stand for the structures. “Also recorded” adds a separate entry of the source. Where two headings read alike, the source gives them in different places.

T3 sequence (P41144 whole entry): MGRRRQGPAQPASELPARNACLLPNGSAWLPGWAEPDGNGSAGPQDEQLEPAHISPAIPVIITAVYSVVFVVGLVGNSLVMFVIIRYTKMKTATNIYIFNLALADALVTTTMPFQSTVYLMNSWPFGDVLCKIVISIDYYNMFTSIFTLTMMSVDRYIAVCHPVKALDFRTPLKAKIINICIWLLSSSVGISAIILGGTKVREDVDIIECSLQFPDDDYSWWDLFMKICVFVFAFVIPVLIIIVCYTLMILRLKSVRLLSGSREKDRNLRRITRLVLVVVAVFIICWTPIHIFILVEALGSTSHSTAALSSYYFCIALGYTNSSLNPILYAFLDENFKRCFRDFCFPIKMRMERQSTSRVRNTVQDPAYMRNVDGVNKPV

Turning to `Oc1ccc2c3c1O[C@H]1[C@H](Br)CC[C@@]4(O)[C@@H](C2)N(CC2CC2)CC[C@]314` [CycloBROXY, reference compound], the IC50 – broadly, the midpoint of a concentration-inhibition curve – was found to be 20.2 ± 1.2 nM at κ2 receptor; 3.14 ± 0.11 nM at μ and κ2 receptor; 4.21 ± 0.14 nM on μ receptor; 4.3 nM in data set [1] (read-out: IC50); 0.7 ± 0.02 nM at κ1 receptor; 5.77 ± 0.14 nM at Low Affinity δ Receptors. The Ki (in general, a dissociation constant, usually derived from enzyme kinetics or from competition with a known ligand) on κ2 receptor came out at 7.21 nM; on μ and κ2 receptor it was 1.19 nM; at μ receptor, 1.23 nM; in data set [1], 1.96 nM; on κ1 receptor, 0.32 nM; on Low Affinity δ Receptors, 4.92 nM. Besides, in the data set on κ2 receptor, the “less potent (fold) than ioxy” value is given as 3 fold. Besides, in the data set on μ and κ2 receptor ([^3 H]CycloFOXY displacement), the “relative affinity / potency in words” value is reported as “intermediate receptor affinity”. Further, the “N (slope factor)” value on μ receptor ([^3 H]DAGO displacement) was 1.05 ± .04; in data set [1] ([^3 H]DADLE, high affinity δ) it was 0.99 ± .09; at κ1 receptor ([^3 H]U69,593 displacement) it was 1.03 ± .03. In addition, the “lower affinity / less potent (fold) than ioxy” value on μ receptor ([^3 H]DAGO displacement) is given as “about 1.5 fold”. Also, the “higher affinity (fold)” value in data set [1] ([^3 H]DADLE, high affinity δ) is 6 fold. Also, at κ1 receptor ([^3 H]U69,593 displacement), the “relative potency in words” value was “most potent displacers”.
With `Oc1ccc2c3c1O[C@H]1[C@@H](I)CC[C@@]4(O)[C@@H](C2)N(CC2CC2)CC[C@]314` [EpilOXY, 6α-Iodo-3,14-Dihydroxy-17-Cyclopropylmethyl-4,5α-Epoxymorphinan], at κ2 receptor, the IC50 is 23.7 ± 1.1 nM; the affinity, expressed as Ki, was 8.46 nM; the “less potent (fold) than ioxy” value came to 3 fold. Besides, at μ and κ2 receptor, the IC50 came to 4.34 ± 0.19 nM and affinity was put at a Ki of 1.65 nM. Also, the “reduction in affinity (fold) compared with ioxy (1)” value in the data set on μ and κ2 receptor ([^3 H]CycloFOXY displacement) is given as 6 fold. For the same molecule, on μ receptor, the IC50 came out at 7.16 ± 0.72 nM and the Ki was determined as 2.09 nM. For the same molecule, on μ receptor ([^3 H]DAGO displacement), the “N (slope factor)” value is recorded as 0.95 ± .08 and the “lower affinity / less potent (fold) than ioxy” value came to 2 fold. In addition, in data set [1], the affinity corresponds to a Ki of 46.2 nM. Moreover, in data set [1] ([^3 H]DADLE, high affinity δ), the “N (slope factor)” value was 0.99 ± .07 and the “lowered affinity / less potent (fold) than ioxy (1)” value is 4 fold. For the same molecule, in data set [1] (read-out: IC50), the IC50 is 101 ± 8.4 nM. Also, at κ1 receptor, half-maximal inhibition (IC50) required 3.17 ± 0.06 nM; the affinity, expressed as Ki, was 1.49 nM; the “N (slope factor)” value was 1.10 ± .02; the “less potent (fold) than ioxy” value is on record as 4 fold. Also, on Low Affinity δ Receptors, the IC50 is 8.06 ± 0.58 nM and the Ki was found to be 6.88 nM. Further, the “lower affinity (fold) than ioxy (1)” value in the data set with Low Affinity δ Receptors ([^3 H]DADLE, low affinity δ) is 3 fold. Also, in data set [2], the “paw withdrawal latency after i.v. injection” value is given as “returned to near baseline values”; the “reversal of behavioral arrest and other opioid effects” value is recorded as “reversed in a matter of seconds”; the duration of reversal entry was “at least 40 min”; the “blood brain barrier penetration” value is “getting into the brain”. In addition, the “reversal of the effects of morphine” value in data set [2] is “complete reversal of the effects of morphine”.
With `Oc1ccc2c3c1O[C@H]1[C@H](I)CC[C@@]4(O)[C@@H](C2)N(CC2CC2)CC[C@]314` [IOXY, 6β-Iodo-3,14-Dihydroxy-17-Cyclopropylmethyl-4,5α-Epoxymorphinan], the IC50 on κ2 receptor worked out at 7.65 ± 0.23 nM; at μ and κ2 receptor it was 0.77 ± 0.05 nM; on μ receptor it was 2.74 ± 0.21 nM; in data set [1] it was 5.6 ± 3.1 nM; at κ1 receptor, 0.89 ± 0.01 nM; at Low Affinity δ Receptors ([…], ligand concentration = 2.1 nM) it was 2.64 ± 0.21 nM. The inhibitory constant (Ki) is 2.73 nM at κ2 receptor; 0.29 nM at μ and κ2 receptor; 0.8 nM at μ receptor; 11.7 nM in data set [1]; 0.42 nM at κ1 receptor; 2.25 nM on Low Affinity δ Receptors. Also, in the data set with κ2 receptor (ratio κ2/μ), the “kappa selectivity κ2/μ” value is 0.3. The “relative affinity / potency in words” value in the data set on μ and κ2 receptor ([^3 H]CycloFOXY displacement) was “more potent than the opiate antagonist, naltrexone”. Also, the “N (slope factor)” value on μ receptor ([^3 H]DAGO displacement) is reported as 1.05 ± .07; in data set [1] ([^3 H]DADLE, high affinity δ) it was 0.77 ± .07; at κ1 receptor, 1.04 ± .02. Further, the “relative potency in words” value at μ receptor ([^3 H]DAGO displacement) was “most potent”; at κ1 receptor, “most potent displacers”. For the same molecule, the “kappa selectivity κ1/μ” value on κ1 receptor came to 1.9. Further, the “relative affinity in words” value in the data set with Low Affinity δ Receptors ([^3 H]DADLE, low affinity δ) was “highest affinity of all the compounds tested”. In addition, the “paw withdrawal latency after i.v. injection” value in data set [2] is “returned to near baseline values”. Moreover, the “reversal of behavioral arrest and other opioid effects” value in data set [2] is reported as “reversed in a matter of seconds”. Moreover, the duration of reversal entry in data set [2] is given as “at least 40 min”. The “blood brain barrier penetration” value was “readily passed the blood brain barrier” in data set [2] and “getting into the brain” in data set [2] (listed as 1). Moreover, the “antagonist potency in vivo (comparison in words)” value in data set [2] (listed as Ioxy) is “more potent in vivo than compound 2 and cyclofoxy”; in data set [2] (listed as ioxy), “potent opioid receptor antagonist in the rat; also recorded: more effective than epiioxy”. For the same molecule, the “reversal of the effects of morphine” value in data set [2] is on record as “complete reversal of the effects of morphine”.
In the case of `Oc1ccc2c3c1O[C@H]1[C@H]([125I])CC[C@@]4(O)[C@@H](C2)N(CC2CC2)CC[C@]314` [[^125 I]1], the “in vivo labelling of rat brain” value in data set [3] is given as “could label opiate rich areas of rat brain”.
Same read-out and setting: under `CC(=O)Oc1ccc2c3c1O[C@H]1[C@H]([125I])CC[C@@]4(O)[C@@H](C2)N(CC2CC2)CC[C@]314` [[^125 I]10, [^125 I]3-Acetoxy-6β-Iodo-14-Hydroxy-17-Cyclopropylmethyl-4,5α-Epoxymorphinan] stands “could label opiate rich areas of rat brain”.
